Values after ≈ are worked out from the molar mass of the structure shown.
Columns and labels:
[1] = Cytotoxicity against African green monkey Vero cells assessed as cell viability after 3 days by XTT assay; type: cell-based; settings: chlorocebus sabaeus
[2] = tested on: Mycobacterium tuberculosis; test: Antimycobacterial activity against Mycobacterium tuberculosis H37Ra assessed as inhibition of mycobacterial replication after 6 days by microplate Alamar blue assay; type: functional; settings: 144 h
[3] = tested on: Mycobacterium tuberculosis; test: Antimycobacterial activity against Mycobacterium tuberculosis H37Ra assessed as inhibition of mycobacterial replication at 200 ug/ml after 6 days by microplate Alamar blue assay; type: functional; settings: 144 h
[4] = tested on: Mycobacterium tuberculosis; test: Antimycobacterial activity against Mycobacterium tuberculosis H37Ra assessed as inhibition of mycobacterial replication at 50 ug/ml after 6 days by microplate Alamar blue assay; type: functional; settings: 144 h
Mycobacterium avium = test: Antimycobacterial activity against Mycobacterium avium ATCC 25291 assessed as inhibition of mycobacterial replication after 6 days by microplate Alamar blue assay; type: functional, Mycobacterium avium subsp. avium ATCC 25291; settings: ATCC 25291, 144 h

CCCCCCCCCCCC#Cc1c[nH]c(=O)nc1N
CC50 at 72 h [1]: > 200 µg/mL

CCCCCCCCC#Cc1c[nH]c(=O)nc1N
MIC50 [2]: 50 µg/mL (≈ 202 µM) | inhibition at 200 µg/mL [3]: 100% | inhibition at 50 µg/mL [4]: 50% | CC50 at 72 h [1]: > 200 µg/mL

CO[C@H]1/C=C/O[C@@]2(C)Oc3c(C)c(O)c4c(O)c(c(/C=N/N5CCN(C)CC5)c(O)c4c3C2=O)NC(=O)/C(C)=C\C=C\[C@H](C)[C@H](O)[C@@H](C)[C@@H](O)[C@@H](C)[C@H](OC(C)=O)[C@@H]1C [RIFAMPIN]
MIC90 [2]: 0.5 µg/mL (≈ 0.608 µM) | MIC90 (Mycobacterium avium): 2 µg/mL (≈ 2.43 µM)

CCCCCCCCCCCCC#Cc1c[nH]c(=O)nc1N
CC50 at 72 h [1]: > 200 µg/mL

— ChEMBL document CHEMBL3784999, “Investigation of 4-amino-5-alkynylpyrimidine-2(1H)-ones as anti-mycobacterial agents” (Bioorg Med Chem, 2016)
